Data from paper PMC6365646, “Oxidative Pathways of Deoxyribose and Deoxyribonate Catabolism” (mSystems, 2019).

Target: T1, deoxyribose dehydrogenase (iorAB-like dehydrogenase) (Pseudomonas simiae, UniProt A0A1N7UDX6)
T1 construct: gene PS417_10885; each subunit His-tagged (pET32a) in E. coli BL21(DE3), bands at 80 kDa (10885) and 17 kDa (10890); not purified, two clarified lysates mixed; native cytochrome c PS417_10880 not included; with Isoquinoline 1-oxidoreductase subunit alpha-like (deoxyribose dehydrogenase small subunit)
T1 sequence (A0A1N7UDX6 2-739): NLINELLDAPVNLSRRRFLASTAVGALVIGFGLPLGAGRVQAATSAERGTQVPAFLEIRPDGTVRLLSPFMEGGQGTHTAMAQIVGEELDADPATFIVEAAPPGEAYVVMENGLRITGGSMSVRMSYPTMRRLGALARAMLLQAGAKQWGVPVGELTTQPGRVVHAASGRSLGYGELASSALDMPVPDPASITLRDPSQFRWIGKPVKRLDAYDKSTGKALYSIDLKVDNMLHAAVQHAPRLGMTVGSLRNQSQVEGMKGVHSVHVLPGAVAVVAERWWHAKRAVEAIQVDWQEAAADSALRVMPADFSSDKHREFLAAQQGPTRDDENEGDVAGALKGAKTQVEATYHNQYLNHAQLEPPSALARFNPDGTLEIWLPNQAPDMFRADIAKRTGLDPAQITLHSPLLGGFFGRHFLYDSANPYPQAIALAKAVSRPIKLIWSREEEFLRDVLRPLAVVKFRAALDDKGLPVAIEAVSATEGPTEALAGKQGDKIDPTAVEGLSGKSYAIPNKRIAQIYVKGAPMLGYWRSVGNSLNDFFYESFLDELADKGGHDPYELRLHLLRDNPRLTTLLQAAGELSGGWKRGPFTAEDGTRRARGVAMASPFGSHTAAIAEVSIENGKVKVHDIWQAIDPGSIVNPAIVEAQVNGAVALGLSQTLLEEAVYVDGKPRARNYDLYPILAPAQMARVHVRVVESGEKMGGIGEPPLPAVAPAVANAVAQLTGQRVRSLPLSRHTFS
T1 sequence (A0A1N7UJP4 1-151 partner): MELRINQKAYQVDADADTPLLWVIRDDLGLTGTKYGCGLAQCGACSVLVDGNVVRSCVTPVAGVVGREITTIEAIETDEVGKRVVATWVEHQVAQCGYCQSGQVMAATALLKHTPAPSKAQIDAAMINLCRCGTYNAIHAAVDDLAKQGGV
Assay: LC-MS/MS detection of deoxyribonate product, mixed E. coli lysates against empty-vector lysate
Format: biochemical
Details: 1 mM deoxyribose, 100 uM phenazine methosulfate as electron acceptor, 100 mM NH4HCO3, room temperature, 1 h, with or without lactonase

| Structure (SMILES) | LC-MS/MS detection of deoxyribonate product, mixed E. coli lysates against empty (may form through spontaneous or lysate hydrolysis of deoxyribono) | LC-MS/MS detection of deoxyribonate product, mixed E. coli lysates against empty |
| --- | --- | --- |
| O=C(O)C[C@H](O)[C@H](O)CO [2-deoxy-D-ribonate] | this product had a fragmentation pattern very similar to that of a 2-deoxy-D-ribonate standard | – |
| OC[C@H]1OC(O)C[C@@H]1O (stereo partly drawn) [2-deoxy-D-ribose] | – | The iorAB-like dehydrogenase converted deoxyribose to a compound with the same mass-to-charge ratio |
